{"source": "patent US11339151B2", "about": "“Aliphatic acid amide derivative” (Sumitomo Dainippon Pharma Co., Ltd., priority 2019, dated 2022)", "key": {"human 5-HT7 receptor [1]": {"molecular_target": "T1, human 5-HT7 receptor (Homo sapiens (Human), UniProt P34969)", "T1 sequence (P34969 whole entry)": "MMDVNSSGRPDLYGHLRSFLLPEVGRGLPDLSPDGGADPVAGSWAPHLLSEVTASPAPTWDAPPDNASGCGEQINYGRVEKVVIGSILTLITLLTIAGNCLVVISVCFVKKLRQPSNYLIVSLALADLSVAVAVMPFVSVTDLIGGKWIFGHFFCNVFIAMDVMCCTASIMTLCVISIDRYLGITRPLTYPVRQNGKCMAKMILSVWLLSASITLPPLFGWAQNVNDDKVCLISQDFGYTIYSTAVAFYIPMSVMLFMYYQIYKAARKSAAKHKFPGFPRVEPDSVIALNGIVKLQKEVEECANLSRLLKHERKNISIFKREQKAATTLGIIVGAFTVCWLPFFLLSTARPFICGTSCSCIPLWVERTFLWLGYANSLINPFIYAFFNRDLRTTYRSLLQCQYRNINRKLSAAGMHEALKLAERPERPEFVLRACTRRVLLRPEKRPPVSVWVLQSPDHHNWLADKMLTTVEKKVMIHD", "assay": "Test 1: binding activity for human 5-HT7 receptor ([3H]SB-269970, CHO cell membrane fraction)", "settings": "[3H]SB-269970, room temperature 60 minutes", "method": "(§1) Ki value was evaluated from dissociation constant which was calculated from saturated binding tests, and a substrate concentration, and it was used as an index for binding affinity."}, "[2]": {"assay": "Test 9: intracerebral transferability in rats", "type": "in vivo", "settings": "brain and plasma (unbound); SD or WKY rat, subcutaneous or oral, 0.5, 1 or 2 hours; unbound brain/plasma ratio", "protocol": "In this test, intracerebral transferability of the present compound was evaluated by the following method. The present compounds were subcutaneously administered as a solution in saline, or orally administered as a suspension in methyl cellulose to a 7-week-old SD or WKY rat. Plasma and brain were collected on 0.5 hour, 1 hour, or 2 hours after the administration in order to measure the drug concentrations in plasma and brain by LC-MS.\nBinding rates of the present compound to plasma and brain protein were measured by equilibrium dialysis method.\nKp,uu,brain (unbound drug concentration ratio between brain/plasma) can be calculated by applying the compound concentrations in plasma and brain and the binding rates to plasma and brain protein obtained from the above test into the following formula. Kp,uu,brain=(Compound concentration in brain×(100−Binding rate to brain protein (%))/100)/(Compound concentration in plasma×(100−Binding rate to plasma protein (%))/100)"}, "hERG channel": {"molecular_target": "hERG channel (Homo sapiens (Human), UniProt Q12809)", "sequence (Q12809 whole entry)": "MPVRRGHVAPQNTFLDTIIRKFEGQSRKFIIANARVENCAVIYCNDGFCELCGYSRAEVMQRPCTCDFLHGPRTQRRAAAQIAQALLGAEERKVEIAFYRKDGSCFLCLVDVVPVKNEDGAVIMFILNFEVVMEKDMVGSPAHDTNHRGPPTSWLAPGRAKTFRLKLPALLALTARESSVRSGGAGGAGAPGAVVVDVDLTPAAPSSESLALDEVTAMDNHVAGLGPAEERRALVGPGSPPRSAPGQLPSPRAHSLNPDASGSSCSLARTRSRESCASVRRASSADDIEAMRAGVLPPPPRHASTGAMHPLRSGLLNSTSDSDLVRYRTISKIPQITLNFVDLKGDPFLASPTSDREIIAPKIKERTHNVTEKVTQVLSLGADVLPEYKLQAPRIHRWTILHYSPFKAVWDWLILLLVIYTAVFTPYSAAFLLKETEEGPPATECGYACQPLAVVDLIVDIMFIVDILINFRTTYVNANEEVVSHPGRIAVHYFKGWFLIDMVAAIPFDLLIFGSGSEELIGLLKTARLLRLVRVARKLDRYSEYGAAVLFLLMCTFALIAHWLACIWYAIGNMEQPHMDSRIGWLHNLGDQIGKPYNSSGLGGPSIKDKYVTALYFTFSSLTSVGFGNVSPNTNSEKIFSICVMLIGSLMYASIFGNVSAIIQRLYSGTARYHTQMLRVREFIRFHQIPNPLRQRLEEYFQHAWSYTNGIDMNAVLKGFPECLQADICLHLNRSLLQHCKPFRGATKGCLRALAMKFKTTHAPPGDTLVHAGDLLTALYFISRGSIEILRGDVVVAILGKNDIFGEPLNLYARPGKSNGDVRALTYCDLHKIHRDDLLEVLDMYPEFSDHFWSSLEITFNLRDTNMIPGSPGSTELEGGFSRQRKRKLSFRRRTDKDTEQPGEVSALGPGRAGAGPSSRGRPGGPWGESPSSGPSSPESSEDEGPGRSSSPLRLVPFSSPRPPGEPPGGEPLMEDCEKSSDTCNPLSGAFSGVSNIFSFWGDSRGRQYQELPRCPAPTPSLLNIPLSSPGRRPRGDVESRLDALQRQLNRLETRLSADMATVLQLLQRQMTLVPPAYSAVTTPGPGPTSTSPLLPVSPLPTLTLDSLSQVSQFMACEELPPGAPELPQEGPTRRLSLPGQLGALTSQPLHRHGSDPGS", "assay": "Test 5: inhibitory activity for hERG channel (whole cell patch clamp, hERG-CHO cells)", "type": "cell-based", "outline": "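Automated whole-cell patch clamp on CHO cells stably expressing hERG (IKr), pulses every 15 s. Each compound applied at 4 incremental concentrations. Value based on mean peak tail current from the last 3 stimulations at each concentration.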"}, "human 5-HT2A receptor [3]": {"molecular_target": "T2, human 5-HT2A receptor (Homo sapiens (Human), UniProt P28223)", "T2 sequence (P28223 whole entry)": "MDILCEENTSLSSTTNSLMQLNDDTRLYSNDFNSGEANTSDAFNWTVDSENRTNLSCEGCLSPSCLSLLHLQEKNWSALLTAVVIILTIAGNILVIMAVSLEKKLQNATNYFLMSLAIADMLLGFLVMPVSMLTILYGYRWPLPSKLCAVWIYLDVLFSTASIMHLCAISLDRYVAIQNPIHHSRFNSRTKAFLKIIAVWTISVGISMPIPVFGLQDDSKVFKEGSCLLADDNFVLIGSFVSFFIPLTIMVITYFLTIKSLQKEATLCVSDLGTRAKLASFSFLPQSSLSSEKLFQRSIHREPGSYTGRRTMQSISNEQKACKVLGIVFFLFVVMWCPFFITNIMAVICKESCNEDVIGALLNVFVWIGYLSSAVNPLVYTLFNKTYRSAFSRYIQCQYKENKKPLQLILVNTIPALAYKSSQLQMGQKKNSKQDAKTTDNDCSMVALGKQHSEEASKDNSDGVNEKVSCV", "assay": "Test 1: binding activity for human 5-HT2A receptor ([3H]Ketanserin, CHO cell membrane fraction)", "settings": "room temperature 60 minutes", "method": "as §1"}, "human 5-HT7 receptor [4]": {"molecular_target": "T1, human 5-HT7 receptor", "assay": "Test 2: antagonist activity for human 5-HT7 receptor (aequorin luminescence, CHO-K1 cells)", "type": "cell-based", "settings": "Gα16", "outline": "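CHO-K1 cells transiently co-expressed aequorin, Gα16 and the respective receptor. They were cultured overnight at 37 °C, then held 2 h at room temperature before compound addition. Luminescence changes were recorded, and inhibition was expressed against wells given 10 μmol/L endogenous ligand (set as 100%).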"}, "human D2 receptor": {"molecular_target": "human D2 receptor (Homo sapiens (Human), UniProt P14416)", "sequence (P14416 whole entry)": "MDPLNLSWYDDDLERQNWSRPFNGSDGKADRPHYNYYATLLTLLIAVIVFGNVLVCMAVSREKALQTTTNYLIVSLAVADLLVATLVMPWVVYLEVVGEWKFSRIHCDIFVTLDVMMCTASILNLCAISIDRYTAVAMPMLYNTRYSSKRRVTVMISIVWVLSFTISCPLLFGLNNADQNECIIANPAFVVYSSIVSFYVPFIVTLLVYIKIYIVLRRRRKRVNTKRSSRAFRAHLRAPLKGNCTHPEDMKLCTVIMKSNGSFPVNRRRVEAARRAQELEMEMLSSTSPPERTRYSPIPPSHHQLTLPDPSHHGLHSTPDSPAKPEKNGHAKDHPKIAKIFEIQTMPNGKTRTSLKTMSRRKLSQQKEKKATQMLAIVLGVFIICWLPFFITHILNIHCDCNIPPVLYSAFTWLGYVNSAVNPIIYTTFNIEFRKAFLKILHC", "assay": "Test 1: binding activity for human D2 receptor ([3H]Spiperone, CHO cell membrane fraction)", "settings": "[3H]Spiperone, room temperature 60 minutes", "method": "as §1"}, "human 5-HT2A receptor [5]": {"molecular_target": "T2, human 5-HT2A receptor", "assay": "Test 2: antagonist activity for human 5-HT2A receptor (aequorin luminescence, CHO-K1 cells)", "type": "cell-based", "settings": "Gα16", "method": "Test 2: Evaluation of Antagonist Activity for Human 5-HT2A Receptor and Human 5-HT7 Receptor\nAequorin, Gα 16 protein, and each receptor were transiently expressed in CHO-K1 cells (Chinese hamster ovary). The cells were cultivated in a CO2 incubator at 37° C. overnight, seeded into a 384-well plate, and stood at room temperature for 2 hours. Each compound dissolved in DMSO was added thereto, and changes in luminescence were measured by FDSS/μCELL drug discovery screening support system (Hamamatsu Photonics K.K.). As for antagonist activity, inhibitory activity of each compound was calculated by setting the luminescence level of wells to which 10 μmol/L endogenous ligand was added as 100%."}, "[6]": {"assay": "Test 3-1: metabolic stability test in human hepatic microsome", "type": "in vitro ADME", "settings": "microsome 0.1 mg/mL, test compound 0.1 μmol/L, 37° C., 30 minutes", "outline": "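Test compound at 0.1 μmol/L incubated 30 min at 37° C with human liver microsomes 0.1 mg/mL and NADPH 3.2 mmol/L in 25 mmol/L phosphate buffer, pH 7.4. Residual compound measured by LC-MS; stability (mL/min/mg protein) = −LN(residual ratio)/30/0.1.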"}}, "data": [{"smiles": "CCN(CCN1CCC(c2noc3cc(F)ccc23)CC1)C(=O)C(O)COC", "note": "(stereo not shown) [Example 18, N-Ethyl-N-{2-[4-(6-fluoro-1,2-benzoisoxazol-3-yl)piperidin-1-yl]ethyl}-2-hydroxy-3-methoxypropanamide]", "values": [{"measurement": "Ki", "setting": "human 5-HT7 receptor [1]", "result": 3.7, "unit": "nM"}, {"measurement": "Kp uu at 2 h", "setting": "[2]", "result": 0.56}, {"measurement": "IC50", "setting": "hERG channel; hERG-CHO cells, auto patch clamp", "result": 4100, "unit": "nM"}, {"measurement": "hERG inhibitory IC50 (nmol/L)/5-HT2A Ki (nmol/L)", "setting": "hERG channel; ratio", "result": 1637}, {"measurement": "hERG inhibitory IC50 (nmol/L)/5-HT7 Ki (nmol/L)", "setting": "hERG channel; ratio", "result": 1097}, {"measurement": "Ki", "setting": "human 5-HT2A receptor [3]", "result": 2.5, "unit": "nM"}, {"measurement": "IC50", "setting": "human 5-HT7 receptor [4]", "result": 72, "unit": "nM"}, {"measurement": "Ki", "setting": "human D2 receptor", "result": 198, "unit": "nM"}, {"measurement": "IC50", "setting": "human 5-HT2A receptor [5]", "result": 58, "unit": "nM"}, {"measurement": "Metabolic stability in human hepatic microsome", "setting": "[6]", "result": "<0.05", "unit": "mL/min/mg protein"}]}]}
